In the supplement of paper PMC10627819:

Columns and labels:
Experiment in all cases: Bliss interaction score (quartile over a dose matrix) (fitness difference); higher = more antagonism (negative = synergy)
S. aureus Newman = settings: main component drawn
In short: (§1)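 The Bliss score is observed minus expected fitness, where expected fitness is the product of the single-drug fitness values inferred from the combination data. Fitness is the OD595 at the onset of stationary phase over the plate's robust no-drug mean, capped at 1. Scores are summarised by quartiles over technical, biological and donor/recipient replicates.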

B. subtilis 168 = settings: main component drawn
In short: as §1

S. aureus DSM 20231 = tested on: S. aureus DSM 20231
In short: as §1

S. pneumoniae D39V = settings: main component drawn
In short: as §1
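Note: first quartile when negative (synergy) and third quartile when positive (antagonism).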

Structure (SMILES)	Bliss interaction score (S. aureus Newman)	Bliss interaction score (B. subtilis 168)	Bliss interaction score (S. aureus DSM 20231; main component drawn)	Bliss interaction score (S. pneumoniae D39V)	Bliss interaction score (S. aureus DSM 20231)
CC[C@H](C)[C@H](N)C1=N[C@H](C(=O)N[C@@H](CC(C)C)C(=O)N[C@H](CCC(=O)O)C(=O)N[C@H](C(=O)N[C@H]2CCCCNC(=O)[C@H](CC(N)=O)NC(=O)[C@@H](CC(=O)O)NC(=O)[C@H](Cc3cnc[nH]3)NC(=O)[C@@H](Cc3ccccc3)NC(=O)[C@H]([C@@H](C)CC)NC(=O)[C@@H](CCCN)NC2=O)[C@@H](C)CC)CS1 [Bacitracin] + C1=CC(=CC(=C1)Cl)NN=C(C#N)C#N [CCCP]	0.194	0.0608	-0.0168	0.0638	–
CC[C@H](C)[C@H](N)C1=N[C@H](C(=O)N[C@@H](CC(C)C)C(=O)N[C@H](CCC(=O)O)C(=O)N[C@H](C(=O)N[C@H]2CCCCNC(=O)[C@H](CC(N)=O)NC(=O)[C@@H](CC(=O)O)NC(=O)[C@H](Cc3cnc[nH]3)NC(=O)[C@@H](Cc3ccccc3)NC(=O)[C@H]([C@@H](C)CC)NC(=O)[C@@H](CCCN)NC2=O)[C@@H](C)CC)CS1 [Bacitracin] + CC1(C)S[C@@H]2[C@H](NC(=O)Cc3ccccc3)C(=O)N2[C@H]1C(=O)O [PenicillinG]	0.0689	-0.164	0.0263	-0.0799	–
CC[C@H](C)[C@H](N)C1=N[C@H](C(=O)N[C@@H](CC(C)C)C(=O)N[C@H](CCC(=O)O)C(=O)N[C@H](C(=O)N[C@H]2CCCCNC(=O)[C@H](CC(N)=O)NC(=O)[C@@H](CC(=O)O)NC(=O)[C@H](Cc3cnc[nH]3)NC(=O)[C@@H](Cc3ccccc3)NC(=O)[C@H]([C@@H](C)CC)NC(=O)[C@@H](CCCN)NC2=O)[C@@H](C)CC)CS1 [Bacitracin] + CC(=O)O[C@H]1C[C@@]2(C)[C@@H](C[C@@H](O)[C@H]3[C@@]4(C)CC[C@@H](O)[C@@H](C)[C@@H]4CC[C@@]32C)/C1=C(\CCC=C(C)C)C(=O)O [Fusidic acid]	-0.0273	-0.166	0.012	-0.0749	–
CC[C@H](C)[C@H](N)C1=N[C@H](C(=O)N[C@@H](CC(C)C)C(=O)N[C@H](CCC(=O)O)C(=O)N[C@H](C(=O)N[C@H]2CCCCNC(=O)[C@H](CC(N)=O)NC(=O)[C@@H](CC(=O)O)NC(=O)[C@H](Cc3cnc[nH]3)NC(=O)[C@@H](Cc3ccccc3)NC(=O)[C@H]([C@@H](C)CC)NC(=O)[C@@H](CCCN)NC2=O)[C@@H](C)CC)CS1 [Bacitracin] + CC[C@H]1OC(=O)[C@H](C)C(=O)[C@H](C)[C@@H](O[C@@H]2O[C@H](C)C[C@H](N(C)C)[C@H]2O)[C@](C)(OC)C[C@@H](C)C(=O)[C@H](C)[C@H]2N(CCCCn3cnc(-c4cccnc4)c3)C(=O)O[C@]12C [Telithromycin]	-0.047	-0.0381	-0.0302	0.0263	–
CC[C@H](C)[C@H](N)C1=N[C@H](C(=O)N[C@@H](CC(C)C)C(=O)N[C@H](CCC(=O)O)C(=O)N[C@H](C(=O)N[C@H]2CCCCNC(=O)[C@H](CC(N)=O)NC(=O)[C@@H](CC(=O)O)NC(=O)[C@H](Cc3cnc[nH]3)NC(=O)[C@@H](Cc3ccccc3)NC(=O)[C@H]([C@@H](C)CC)NC(=O)[C@@H](CCCN)NC2=O)[C@@H](C)CC)CS1 [Bacitracin] + CC[C@H]1OC(=O)[C@H](C)[C@@H](O[C@H]2C[C@@](C)(OC)[C@@H](O)[C@H](C)O2)[C@H](C)[C@@H](O[C@@H]2O[C@H](C)C[C@H](N(C)C)[C@H]2O)[C@](C)(O)C[C@@H](C)C(=O)[C@H](C)[C@@H](O)[C@]1(C)O [Erythromycin]	-0.0632	-0.0517	-0.0209	0.0397	–
CC[C@H](C)[C@H](N)C1=N[C@H](C(=O)N[C@@H](CC(C)C)C(=O)N[C@H](CCC(=O)O)C(=O)N[C@H](C(=O)N[C@H]2CCCCNC(=O)[C@H](CC(N)=O)NC(=O)[C@@H](CC(=O)O)NC(=O)[C@H](Cc3cnc[nH]3)NC(=O)[C@@H](Cc3ccccc3)NC(=O)[C@H]([C@@H](C)CC)NC(=O)[C@@H](CCCN)NC2=O)[C@@H](C)CC)CS1 [Bacitracin] + CC[C@H]1OC(=O)[C@H](C)[C@@H](O[C@H]2C[C@@](C)(OC)[C@@H](O)[C@H](C)O2)[C@H](C)[C@@H](O[C@@H]2O[C@H](C)C[C@H](N(C)C)[C@H]2O)[C@](C)(OC)C[C@@H](C)C(=O)[C@H](C)[C@@H](O)[C@]1(C)O [Clarithromycin]	-0.0869	0.0539	-0.0475	-0.0454	–
CC[C@H](C)[C@H](N)C1=N[C@H](C(=O)N[C@@H](CC(C)C)C(=O)N[C@H](CCC(=O)O)C(=O)N[C@H](C(=O)N[C@H]2CCCCNC(=O)[C@H](CC(N)=O)NC(=O)[C@@H](CC(=O)O)NC(=O)[C@H](Cc3cnc[nH]3)NC(=O)[C@@H](Cc3ccccc3)NC(=O)[C@H]([C@@H](C)CC)NC(=O)[C@@H](CCCN)NC2=O)[C@@H](C)CC)CS1 [Bacitracin] + CN(C)[C@@H]1C(O)=C(C(N)=O)C(=O)[C@@]2(O)C(O)=C3C(=O)c4c(O)ccc(Cl)c4[C@@](C)(O)[C@H]3C[C@@H]12 [Clortetracycline]	-0.0827	-0.12	0.0294	0.135	–
CO[C@@]12[C@H](COC(N)=O)C3=C(C(=O)C(C)=C(N)C3=O)N1C[C@@H]1N[C@@H]12 [MitomycinC] + COc1ccc(CCN(C)CCCC(C#N)(c2ccc(OC)c(OC)c2)C(C)C)cc1OC [Verapamil]	–	–	–	–	0.195
CO[C@@]12[C@H](COC(N)=O)C3=C(C(=O)C(C)=C(N)C3=O)N1C[C@@H]1N[C@@H]12 [MitomycinC] + Cc1c(Cl)cccc1Nc1ccccc1C(=O)O [Tolfenamic]	–	–	–	–	-0.273
CC(C)(O)c1ccccc1CC[C@@H](SCC1(CC(=O)O)CC1)c1cccc(/C=C/c2ccc3ccc(Cl)cc3n2)c1 [Montelukast] + CCC(C)C1C(=O)NC(=C)C(=O)NC(C(=O)NC(CSCC(C(=O)N1)NC(=O)/C(=C/C)/NC(=O)C(C(C)CC)N)C(=O)NC2C(SCC(NC(=O)CNC(=O)C3CCCN3C2=O)C(=O)NC(CCCCN)C(=O)NC4C(SCC(NC(=O)CNC(=O)C(NC(=O)C(NC(=O)C(NC(=O)CNC4=O)C)CC(C)C)CCSC)C(=O)NC(CC(=O)N)C(=O)NC(CCSC)C(=O)NC(CCCCN)C(=O)NC5C(SCC6C(=O)NC(C(=O)NC(CSC(C(C(=O)N6)NC(=O)C(NC5=O)C)C)C(=O)NC(CO)C(=O)NC(C(C)CC)C(=O)NC(CC7=CN=CN7)C(=O)NC(C(C)C)C(=O)NC(=C)C(=O)NC(CCCCN)C(=O)O)CC8=CN=CN8)C)C)C)CC(C)C [Nisin]	–	–	0.297	–	–
CC(C)(O)c1ccccc1CC[C@@H](SCC1(CC(=O)O)CC1)c1cccc(/C=C/c2ccc3ccc(Cl)cc3n2)c1 [Montelukast] + CN[C@@H]1[C@H](O[C@H]2[C@H](O[C@H]3[C@H](O)[C@@H](O)[C@H](N=C(N)N)[C@@H](O)[C@@H]3N=C(N)N)O[C@@H](C)[C@]2(O)C=O)O[C@@H](CO)[C@H](O)[C@H]1O [Streptomycin]	–	–	–	–	-0.394
CC(C)(O)c1ccccc1CC[C@@H](SCC1(CC(=O)O)CC1)c1cccc(/C=C/c2ccc3ccc(Cl)cc3n2)c1 [Montelukast] + CN[C@H](CC(C)C)C(=O)N[C@H]1C(=O)N[C@@H](CC(N)=O)C(=O)N[C@H]2C(=O)N[C@H]3C(=O)N[C@H](C(=O)N[C@H](C(=O)O)c4cc(O)cc(O)c4-c4cc3ccc4O)[C@H](O[C@H]3C[C@](C)(N)[C@@H](O)[C@H](C)O3)c3ccc(c(Cl)c3)Oc3cc2cc(c3O[C@@H]2O[C@H](CO)[C@@H](O)[C@H](O)[C@H]2O[C@H]2C[C@](C)(NCc3ccc(-c4ccc(Cl)cc4)cc3)[C@@H](O)[C@H](C)O2)Oc2ccc(cc2Cl)[C@H]1O [Oritavancin]	–	–	–	–	0.247
CC(C)(O)c1ccccc1CC[C@@H](SCC1(CC(=O)O)CC1)c1cccc(/C=C/c2ccc3ccc(Cl)cc3n2)c1 [Montelukast] + COc1cc(Cc2cnc(N)nc2N)cc(OC)c1OC [Trimethoprim]	–	–	–	–	-0.299
CC(C)(O)c1ccccc1CC[C@@H](SCC1(CC(=O)O)CC1)c1cccc(/C=C/c2ccc3ccc(Cl)cc3n2)c1 [Montelukast] + Cn1nnc(-c2ccc(-c3ccc(N4C[C@H](CO)OC4=O)cc3F)cn2)n1 [Tedizolid]	–	–	–	–	-0.384
CO[C@@H]1[C@@H](OC(N)=O)[C@@H](O)[C@H](Oc2ccc3c(O)c(NC(=O)c4ccc(O)c(CC=C(C)C)c4)c(=O)oc3c2C)OC1(C)C [Novobiocin] + CCCSc1nc(N[C@@H]2C[C@H]2c2ccc(F)c(F)c2)c2nnn([C@@H]3C[C@H](OCCO)[C@@H](O)[C@H]3O)c2n1 [Ticagrelor]	–	–	–	–	0.177
CO[C@H]1/C=C/O[C@@]2(C)Oc3c(C)c(O)c4c(O)c(c(/C=N/N5CCN(C)CC5)c(O)c4c3C2=O)NC(=O)/C(C)=C\C=C\[C@H](C)[C@H](O)[C@@H](C)[C@@H](O)[C@@H](C)[C@H](OC(C)=O)[C@@H]1C [Rifampicin] + CCCSc1nc(N[C@@H]2C[C@H]2c2ccc(F)c(F)c2)c2nnn([C@@H]3C[C@H](OCCO)[C@@H](O)[C@H]3O)c2n1 [Ticagrelor]	–	–	–	–	0.245
CN[C@@H]1[C@H](O)[C@H](NC)[C@H]2O[C@@]3(O)C(=O)C[C@@H](C)O[C@H]3O[C@@H]2[C@H]1O [Spectinomycin] + Cc1c(Cl)cccc1Nc1ccccc1C(=O)O [Tolfenamic]	–	–	–	–	0.145
CN[C@@H]1[C@H](O[C@H]2[C@H](O[C@H]3[C@H](O)[C@@H](O)[C@H](N=C(N)N)[C@@H](O)[C@@H]3N=C(N)N)O[C@@H](C)[C@]2(O)C=O)O[C@@H](CO)[C@H](O)[C@H]1O [Streptomycin] + CC/C(=C(\c1ccccc1)c1ccc(OCCN(C)C)cc1)c1ccccc1 [Tamoxifene]	–	–	–	–	0.166
CN[C@@H]1[C@H](O[C@H]2[C@H](O[C@H]3[C@H](O)[C@@H](O)[C@H](N=C(N)N)[C@@H](O)[C@@H]3N=C(N)N)O[C@@H](C)[C@]2(O)C=O)O[C@@H](CO)[C@H](O)[C@H]1O [Streptomycin] + CCCSc1nc(N[C@@H]2C[C@H]2c2ccc(F)c(F)c2)c2nnn([C@@H]3C[C@H](OCCO)[C@@H](O)[C@H]3O)c2n1 [Ticagrelor]	–	–	–	–	-0.259
CN[C@@H]1[C@H](O[C@H]2[C@H](O[C@H]3[C@H](O)[C@@H](O)[C@H](N=C(N)N)[C@@H](O)[C@@H]3N=C(N)N)O[C@@H](C)[C@]2(O)C=O)O[C@@H](CO)[C@H](O)[C@H]1O [Streptomycin] + CCCc1nc2c(C)cc(-c3nc4ccccc4n3C)cc2n1Cc1ccc(-c2ccccc2C(=O)O)cc1 [Telmisartan]	–	–	–	–	0.123
CN[C@@H]1[C@H](O[C@H]2[C@H](O[C@H]3[C@H](O)[C@@H](O)[C@H](N=C(N)N)[C@@H](O)[C@@H]3N=C(N)N)O[C@@H](C)[C@]2(O)C=O)O[C@@H](CO)[C@H](O)[C@H]1O [Streptomycin] + Cc1ccc(C(C)C)c(O)c1 [Thymol]	–	–	–	–	-0.425
